Values of other authors, collected in patent US20100016430A1, “MODIFIED COCONUT OILS WITH BROAD ANTIMICROBIAL SPECTRUM” (MALAYSIAN AGRICULTERAL RESEARCH AND DEVELOPMENT IN, priority 2005, published 2010).

How the values were obtained:
C. albicans = conditions: Bergsson et al. 2001
C. trachomatis = conditions: for Effect on C. trachomatis: 10 mM concentration
H. pylori = conditions: 10 mM for 30 min at 37° C.
Pseudomonas spp = conditions: 250 and 500 ppm in naturally contaminated cottage cheese
coliform = conditions: 250 and 500 ppm in naturally contaminated cottage cheese

CCCCCCCCCC(=O)O [capric acid]
Killing of C. albicans / antimicrobial effect (C. albicans): fastest and most effective killing

CCCCCCCCCCCC(=O)O [lauric acid]
Inactivation of C. trachomatis (C. trachomatis; 5 mM for 5 min): greater than 100,000 fold | Killing of C. albicans / antimicrobial effect (C. albicans): fastest and most effective killing

CCCCCCCCCC(=O)OCC(O)CO (stereo not drawn) [monocaprin]
Activity against H. pylori (H. pylori): most active

CCCCCCCC(=O)OCC(O)CO (stereo not drawn) [monocaprylin]
Effect on C. trachomatis (C. trachomatis): negligible effect

CCCCCCCCCCCC(=O)OCC(O)CO (stereo not drawn) [monolaurin]
Effect on C. trachomatis (C. trachomatis): negligible effect | Activity against H. pylori (H. pylori): most active | Inhibition of Pseudomonas spp (Pseudomonas spp): more than 90% | Inhibition of coliform (coliform): more than 90%

CCCCCCCCCCCCCC(=O)O [myristic acid]
Killing of C. albicans / antimicrobial effect (C. albicans): do not shown antimicrobial effect

CCCCCCCC/C=C\CCCCCCCC(=O)O [oleic acid]
Killing of C. albicans / antimicrobial effect (C. albicans): do not shown antimicrobial effect

CCCCCC/C=C\CCCCCCCC(=O)O [palmitoleic acid]
Killing of C. albicans / antimicrobial effect (C. albicans): do not shown antimicrobial effect
